Measurements as given in ChEMBL document CHEMBL3045809, “Susceptibility of adult Trichogramma nubilale (Hymenoptera: Trichogrammatidae) to selected insecticides with different modes of action” (Crop Prot, 2012).

Tests used:
[1] = system: Trichogramma nubilale; assay: Contact toxicity against Trichogramma nubilale assessed as mortality after 24 hr by modified slight dry film method; type: functional
[2] = system: Trichogramma nubilale

Compound	LC50 [1] [mgAi/L]	LC95 [1] [mgAi/L]	LC50 [2] [mgAi/L]	LC95 [2] [mgAi/L]
CC1(C)[C@H](/C=C(\Cl)C(F)(F)F)[C@@H]1C(=O)O[C@@H](C#N)c1cccc(Oc2ccccc2)c1 (relative stereo) [REL-LAMBDA CYHALOTHRIN]	13.69	127.6		
CC[C@H](C)[C@H]1O[C@]2(C=C[C@@H]1C)C[C@@H]1C[C@@H](C/C=C(\C)[C@@H](O[C@H]3C[C@H](OC)[C@@H](O[C@H]4C[C@H](OC)[C@@H](O)[C@H](C)O4)[C@H](C)O3)[C@@H](C)/C=C/C=C3\CO[C@@H]4[C@H](O)C(C)=C[C@@H](C(=O)O1)[C@]34O)O2.CO[C@H]1C[C@H](O[C@H]2[C@H](C)O[C@@H](O[C@@H]3/C(C)=C/C[C@@H]4C[C@@H](C[C@]5(C=C[C@H](C)[C@@H](C(C)C)O5)O4)OC(=O)[C@@H]4C=C(C)[C@@H](O)[C@H]5OC/C(=C\C=C\[C@@H]3C)[C@]54O)C[C@@H]2OC)O[C@@H](C)[C@@H]1O [ABAMECTIN]	3.57	25.42		
C/C(=N\C#N)N(C)Cc1ccc(Cl)nc1 [ACETAMIPRID]	19.24	167.9		
CC1(C)C(C=C(Cl)Cl)C1C(=O)OC(C#N)c1cccc(Oc2ccccc2)c1 (stereo not drawn) [ALPHA-CYPERMETHRIN]	19.48	176.8		
C=C(C)CNc1c([S+]([O-])C(F)(F)F)c(C#N)nn1-c1c(Cl)cc(C(F)(F)F)cc1Cl (stereo not given) [BUTENE-FIPRONIL]	0.0068	0.0419		
CNC(=O)Oc1cccc2ccccc12 [CARBARIL]		5.71		
CCCCN(CCCC)SN(C)C(=O)Oc1cccc2c1OC(C)(C)C2 [CARBOSULFAN]	0.95	7.4		
O=C(NC(=O)c1c(F)cccc1F)Nc1cc(Cl)c(Oc2ncc(C(F)(F)F)cc2Cl)c(Cl)c1 [CHLORFLUAZURON]	7533	111205		
CCOP(=S)(OCC)Oc1nc(Cl)c(Cl)cc1Cl [CHLORPYRIFOS]	0.081	0.45		
CC1(C)C(/C=C(\Cl)C(F)(F)F)C1C(=O)OC(C#N)c1cccc(Oc2ccccc2)c1 (stereo not given) [CYHALOTHRIN]	10.98	93.25		
CC[S+]([O-])c1c(C#N)nn(-c2c(Cl)cc(C(F)(F)F)cc2Cl)c1N (stereo not given) [ETHIPROLE]	4.67	21.35		
COP(=S)(OC)Oc1ccc([N+](=O)[O-])c(C)c1 [FENITROTHION]	2.1	34.74		
CC1(C)C(C(=O)OC(C#N)c2cccc(Oc3ccccc3)c2)C1(C)C (stereo not given) [FENPROPATHRIN]	150.3	1327.5		
N#Cc1nn(-c2c(Cl)cc(C(F)(F)F)cc2Cl)c(N)c1[S+]([O-])C(F)(F)F (stereo not given) [FIPRONIL]	0.29	1.82		
O=C(NC(=O)c1c(F)cccc1F)Nc1cc(Cl)c(OC(F)(F)C(F)F)c(Cl)c1 [HEXAFLUMURON]	9672	51197		
O=[N+]([O-])/N=C1\NCCN1Cc1ccc(Cl)nc1 [IMIDACLOPRID]	311.9	2675		
O=[N+]([O-])/N=C1\NCCN1Cc1cnc(Cl)s1 [IMIDACLOTHIZ]	75.27	636.5		
CNC(=O)Oc1ccccc1C(C)C [ISOPROCARB]	0.12	0.95		
CNC(=O)Oc1cccc(C)c1 [METOLCARB]	0.53	5.2		
CCN(Cc1ccc(Cl)nc1)/C(=C/[N+](=O)[O-])NC [NITENPYRAM]	4.37	31.37		
CCOP(=S)(OCC)O/N=C(\C#N)c1ccccc1 [PHOXIM]	0.14	1.35		
CCCSP(=O)(OCC)Oc1ccc(Br)cc1Cl (stereo not given) [PROFENOFOS]	0.18	1.73		
CNC(=O)Oc1cc(C)cc(C(C)C)c1 [PROMECARB]	0.32	1.91		
CCc1ccc(C(=O)NN(C(=O)c2cc(C)cc(C)c2)C(C)(C)C)cc1 [TEBUFENOZIDE]	3452	21616		
N#C/N=C1\SCCN1Cc1ccc(Cl)nc1 [THIACLOPRID]	56.73	461.2		
CN1COCN(Cc2cnc(Cl)s2)/C1=N\[N+](=O)[O-] [THIAMETHOXAM]	1.86	13.35		
CCOP(=S)(OCC)Oc1ncn(-c2ccccc2)n1 [TRIAZOPHOS]	1.81	21.65		
IVERMECTIN			2.36	15.2
